Patent US20260210856A1, “CONJUGATED OLIGOELECTROLYTES WITH BORON-DIPYRROMETHENE CORES AND METHODS THEREOF” (National University of Singapore, priority 2022, published 2026)

Tests used:
HeLa cells [1] = assay: Membrane tension imaging during endocytosis, 2P-FLIM; type: cell-based
Protocol: We thus stained HeLa cells with COE-BYPhOC4 for different lengths of time and captured 2P-FLIM images of the cell state at specific intervals. For these studies, we correlated the time-dependent colocalization experiments with 2P-FLIM data to link τw with the identity of the vesicles. […] Time dependent colocalization with Rab5a allowed us a means of assigning the identities of the vesicles. At 2 hours, the blue and green vesicles in FLIM image were identified as early endosomes. Upon increasing staining time to 4 h, all COE-BYPhOC4 entered the cells with a further increase in τw, leading to a main yellow color. […] As previously analyzed from the colocalization images in FIG. 12, all the COEs resided exclusively within late endosomes at this point in time. […] This observation is potentially reflective of the different domains in endosomes.

[2] = Fluorescence imaging of stained GUVs; type: physicochemical; details: POPC GUV, normal light
Text: Giant unilamellar vesicles (GUVs) composed of 1-palmitoyl-2-oleoyl-glycero-3-phosphocholine (POPC) were chosen as the model membrane system for the initial studies because of their ideal size (diameter>1 μm) for imaging via optical microscopy. […] COE-BY series are thus embedded within the bilayer as membrane-spanning probes, a geometric consideration relevant to measuring membrane tension across the whole lipid bilayer, instead of a single leaflet.

HeLa cells [3] = assay: Time-dependent colocalization with organelle probes, confocal microscopy; type: cell-based
Protocol: (b) Confocal image of A549 cells stained with 1 μM COE-BYPhOC4. Confocal images of (c) A549 and (d) HeLa cells. Cells were prestained with COE-BYPhOC4 (red) for 4 hours and then stained with commercial plasma membrane dye CellMask Deep Red (blue and green, respectively) for 5 min. (e) Confocal images for time-dependent colocalization experiments. HeLa cells were stained with 1 μM COE-BYPhOC4 with different incubation times (2 h, 8 h, 24 h and 48 h). Cells were imaged in multiple channels to collect fluorescence signals from COE-BYPhOC4 and other commercial organelle dyes. Red: COE-BYPhOC4; the first column green: CellLight Early Endosome-GFP; the second column green: CellLight Late Endosome-GFP; the third column deep blue: CellLight Lysosomes-GFP; the fourth column sky blue: HCS LipidTOX™ Deep Red; the fifth column yellow: MitoTracker Deep Red. Scale bar: 5 μm.
Insights into the intracellular location of COE-BYPhOC4 at different time points were sought through colocalization experiments with a panel of common commercial organelle probes (CellLight Early Endosome-GFP, CellLight Late Endosome-GFP, CellLight Lysosomes-GFP, LipidTOX™ Deep Red, and MitoTracker Deep Red). To label the vesicles in the endocytic pathway with high specificity and avoid dye translocation associated with alkalinizing effects and equilibrium shifts after extended durations, we elected to use GFP-tagged markers that are definitive for each vesicle subtype, namely Rab5a, Rab7a, and Lamp-1 for early endosomes, late endosomes, and lysosomes respectively. […] Subsequently at 8 hours, the highest overlay can be observed from COEs and the late endosome marker. Prolonged incubation beyond this point further increased the degree of colocalization, from 0.73 at 8 hours to 0.95 at 48 h.

[4] = FLIM of stained GUVs with varying compositions; type: physicochemical; details: 1 μM
Text: FLIM is a time-resolved method used to obtain information on the emission decay of a fluorophore in different cellular environments. Being independent of parameters such as local dye concentration, absorption profile, and excitation intensity, FLIM is sensitive to changes in the fluorophore itself relative to intensity-based measurements. Accordingly, we first used GUV model systems with a well-defined composition to measure the lifetime of the probe in environments of known lipid packing. For this purpose, use used compositions of, in order of increased membrane tension, DOPC, DOPC with cholesterol (Chol), sphyngomyelin (SM) and SM with Chol. This series of GUVs allows us to examine to what extent τw of intercalated COE-BYPhOC4 is responsive to different levels of membrane tension.
GUVs were thus first stained with 1 μM COE-BYPhOC4 and were imaged via conventional FLIM. […] All the lifetimes measured are predominantly described by a mono-exponential fit. […]

HeLa cells [5] = assay: Brightness of stained HeLa cells by flow cytometry; type: cell-based; details: FIG. 11
Text: To evaluate their potential use as fluorescent probes for intracellular imaging, we first analyzed the brightness of each COE-BY molecule when used to stain HeLa cells using flow cytometry. As flow cytometry reports the fluorescence intensity per cell, this analysis would enable simultaneous evaluation of the cellular uptake and brightness. […] Based on these parameters, COE-BYPhOC4 was chosen for further in vitro imaging studies.

A549 cells = assay: Confocal microscopy of stained cells; type: cell-based
Protocol: A549 cells were stained for 5 minutes with 0.75 μM COE-BYPhMe (red channel) before imaging and Hoechst 33342 (blue channel).
Our next objective was to study the cellular distribution of COE-BYPhOC4 series at different time points by conventional confocal microscopy.

fluorescence of stained GUV [2]: strong uniform fluorescence
τw ([4]; DOPC GUVs): 1.6±0.2 ns
τw ([4]; SM/Chol vesicles): 2.8±0.3 ns
SMILES: CCCCOc1ccc(C2=C3C(C)=C(c4ccc(/C=C/c5cc(OCCCCCC[N+](C)(C)C)c(OCCCCCC[N+](C)(C)C)c(OCCCCCC[N+](C)(C)C)c5)cc4)C(C)=[N+]3[B-](F)(F)n3c(C)c(-c4ccc(/C=C/c5cc(OCCCCCC[N+](C)(C)C)c(OCCCCCC[N+](C)(C)C)c(OCCCCCC[N+](C)(C)C)c5)cc4)c(C)c32)cc1.[I-].[I-].[I-].[I-].[I-].[I-] [COE-BYPhOC4]
τw (HeLa cells [1]; 8 to 24 h, red-orange vesicles): 2.7-3.0 ns
τw (HeLa cells [1]; 0.5 h, plasma membranes): ≈ 1.5 ns
τw (HeLa cells [1]; 0.5 h, regions beginning to be internalized): ≈ 1.0 ns
τw (HeLa cells [1]; vesicles taken up earlier (green)): 2.0-2.4 ns
degree of colocalization with late endosome marker (HeLa cells [3]; 1 μM, 8 hours): 0.73
degree of colocalization with late endosome marker (HeLa cells [3]; 1 μM, 48 h): 0.95
Pearson's correlation coefficient value (R) relative to GFP-tagged Rab5a (early endosome) (HeLa cells [3]; 1 μM, incubation 2 h): 0.71
colocalization with lipid droplets and mitochondria markers (HeLa cells [3]; all timepoints): poor colocalization with lipid droplets and mitochondria markers at all timepoints
brightness of stained cells (HeLa cells [5]): highest brightness
staining pattern (A549 cells; A549, 1 μM, 10 minutes): strong fluorescence signals were observed on the plasma membranes
location of emission (A549 cells; incubation for 4 hours): predominantly intracellular emission
